This note sets out measurements from US20180179174A1, “12H-BENZO[b]XANTHEN-12-ONES, COMPOSITIONS CONTAINING, AND USES OF, SAME” (Thesan Pharmaceuticals, Inc., priority 2015, published 2018).

Series [1] addresses T1, Aryl Hydrocarbon Receptor (Homo sapiens, UniProt P35869).
T1 construct: endogenous in cells; host or cells: normal human keratinocytes (NHK) transduced with the reporter lentivector plox-XRE TATA-Luc
T1 sequence (P35869 11-848): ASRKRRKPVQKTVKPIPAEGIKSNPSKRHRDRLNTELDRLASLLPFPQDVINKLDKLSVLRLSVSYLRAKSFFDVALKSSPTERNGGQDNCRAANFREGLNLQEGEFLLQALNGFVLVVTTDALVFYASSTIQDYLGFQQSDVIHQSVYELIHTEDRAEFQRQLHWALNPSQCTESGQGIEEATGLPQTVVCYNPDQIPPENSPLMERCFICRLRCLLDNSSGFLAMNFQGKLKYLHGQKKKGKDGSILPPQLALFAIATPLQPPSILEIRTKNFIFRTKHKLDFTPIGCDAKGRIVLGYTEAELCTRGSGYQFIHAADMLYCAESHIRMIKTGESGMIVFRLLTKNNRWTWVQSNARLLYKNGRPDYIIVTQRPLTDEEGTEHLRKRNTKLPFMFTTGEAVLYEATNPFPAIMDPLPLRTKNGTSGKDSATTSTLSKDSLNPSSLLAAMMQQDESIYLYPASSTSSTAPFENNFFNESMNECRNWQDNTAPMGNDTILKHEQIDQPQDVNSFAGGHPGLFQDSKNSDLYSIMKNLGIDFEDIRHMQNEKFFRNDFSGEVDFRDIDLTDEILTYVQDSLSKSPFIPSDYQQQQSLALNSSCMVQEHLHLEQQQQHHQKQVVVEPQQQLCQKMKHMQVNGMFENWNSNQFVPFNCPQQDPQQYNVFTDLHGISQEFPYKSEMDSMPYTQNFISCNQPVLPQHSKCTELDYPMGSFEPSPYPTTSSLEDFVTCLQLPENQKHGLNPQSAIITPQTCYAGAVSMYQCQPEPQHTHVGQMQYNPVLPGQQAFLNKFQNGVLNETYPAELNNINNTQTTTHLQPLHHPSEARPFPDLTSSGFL
Kind of series: AhR activation, luciferase reporter (plox-XRE TATA-Luc) in HEP G2 cells. It is filed as cell-based. Conditions: 24 h, 1-10 uM. The procedure:
AhR activation is measured in HEP G2 cells (hepatocytes, Hep G2 is a human liver carcinoma cell line) stably transfected with the lentivector plox-XRE TATA-Luc. The Hep G2 cells are cultured in a growing media consisting of DMEM (Gibco)+10% fetal bovine serum+penicillin+streptomycin. At D0, the Hep G2 cells are seeded into 12-well plates in proportions of approximately 30,000 cells/cm^2. After 24 h, the medium is replaced with fresh medium and the cells are transduced with the lentivector plox-XRE TATA-Luc. After 48 h, the cells are subcultured and maintained in culture, and tested for their reactivity to 3-phenyl-1H-benzo[f]chromen-1-one. The tests are carried out using the luciferase reporter assay system kit from Promega. At D0, the cells are seeded at a density of approximately 60% confluence, and then treated, at D1, with the test substance diluted to various concentrations in the appropriate culture medium. At D2, the cells are lysed in CLB buffer, and the lysate is clarified by centrifugation for 5 min at 10 000 g. The luciferase activity is measured in 20 microliters of lysate as recommended by the supplier, using the luminoskan luminometer (Thermo). […] Data is processed and EC50's can be calculated from standard data monitoring software.

The target in series [2] is T1, Aryl Hydrocarbon Receptor. Description: AhR activation, luciferase reporter (plox-XRE TATA-Luc) in normal human keratinocytes. It is filed as cell-based. Conditions: NHK-plox-XRE TATA-Luc cells, 24 h, 1-10 uM. As for the experimental part: AhR activation is also measured in human skin cells such as normal human keratinocytes (NHK cells) or A431 epidermoid cells stably transfected with the lentivector plox-XRE TATA-Luc. The NHK cells are cultured in a specific keratinocyte SFM medium (Gibco)+penicillin+streptomycin. At D0, the NHK cells are seeded into 6-well plates in a proportion of approximately 15,000 cells/cm^2. After 24 h, the medium is replaced with fresh medium and the cells are transduced with the lentivector plox-XRE TATA-Luc. After 48 h, the cells are subcultured and maintained in culture, and tested for their reactivity to 3-phenyl-1H-benzo[f]chromen-1-one. The tests are carried out using the luciferase reporter assay system kit from Promega. At D0, the cells are seeded at a density of approximately 60% confluence, and then treated, at D1, with the test substance diluted to various concentrations in the appropriate culture medium. At D2, the cells are lysed in CLB buffer, and the lysate is clarified by centrifugation for 5 min at 10 000 g. The luciferase activity is measured in 20 microliters of lysate as recommended by the supplier, using the luminoskan luminometer (Thermo). […] Data is processed and EC50's can be calculated from standard data monitoring software.
A general note: Reporter assays use an easily measured gene product as a stand-in for the process of interest.

Series [3] has as its system CYP1A1. Description: CYP1A1 activity test (P450-GLO) in HEP G2 or NHK cells. The class given is cell-based, human. Conditions: 24 h, 1-10um, control compound. As for the experimental part: The essential methodology for culture and handling of HEP G2 cells and NHK cells has been described in Examples 2 and 3. The tests are carried out using the P450-GLO assay kit from Promega. At D0, the cells are seeded at a density of approximately 60% confluence, and then treated at D1 with the test substance diluted to various concentrations in the appropriate culture medium. At D2, the CYP1A1 activity is measured as recommended by the supplier, using the non-lytic protocol on a cell monolayer.

In a further series the test system is sebaceous glands. Description: Mouse ear assay for determination of sebaceous gland prevalence. It is filed as in vivo, C57BL/6J male mice. Conditions: 0.7% in DMSO:acetone 50:50, 80 ul dermal twice a day for five days, vs controls. The procedure: C57BL/6J male mice (Harlan Models), approximately 4-5 weeks of age, body weight 20-30 g, were acclimatized (individually housed) for 5 days in a 12 hour light/dark cycle standard laboratory environment (T=20-24° C., relative humidity 30-70%, 15-20 air changes per hour) with access to water and standard rodent chow (Harlan Teklad 2014C supplied by Harlan Laboratories Models, S.L.) ad libitum. […] All animals were monitored daily for reaction to the treatment, signs of illness, and behavioral changes. Body weights were recorded before the first administration and immediately prior to sacrifice. Approximately 12 to 16 hours after the final administration on day 5 the mice were sacrificed by i.p. injection of sodium pentobarbital (200 mg/kg) and the ears were collected. Each ear was sectioned into two halves. For each animal, one-half of one ear was fixed, in neutral phosphate-buffered 4% formaldehyde solution (4% formalin). This trimmed section of the ear was then processed, embedded in paraffin wax and stored at room temperature. The remaining half of that ear and the entire opposite ear was frozen at −80° C. Wax mounted ear pieces were sectioned with a microtome and stained with hematoxylin and eosin. Sebaceous glands were identified visually by their structures. […]

The subject of series [4] is CYP1A1. Description: Induction of Cyp1A1 in HEP G2 cells (EROD assay). The conditions noted are these: human, probe 7-ethoxyresorufin (8 μM), HepG2 cells, 1-10 μM range, vs solvent. It is filed as cell-based. As for the experimental part: The essential methodology for culture and handling of HEP G2 cells and NHK cells has been described in Examples 2 and 3. HepG2 cells are seeded at between 1×10^4 and 2.5×10^4 cells/well in a 96-well microtitre plate. […] The formation of resorufin is quantified by fluorometry with a fluorescence plate reader. Fluorescence is determined at λex 570 nm and λem 590 nm. The amount of resorufin is calculated from a standard curve generated using 0 to 1 μM resorufin in water at ½ log dilutions. The remaining (i.e. all cells present at the beginning of analysis, since only supernatant is taken to assay EROD) live cells are subsequently utilized for the MIT cytotoxicity assay. MTT is made up in serum-free medium at 5 mg/ml. then added to the cells giving a final concentration of 10% (0.5 mg/ml MTT final) then incubated for 2 h. The medium is carefully removed, then MTT formazan is solubilized by adding 200 μl of DMSO and subsequently mixed on a plate shaker. The absorbance is measured spectrophotometrically at 550 nm and background absorbance at 690 nm is subtracted. A standard curve generated using MTT formazan (dissolved in DMSO) from 0-200 μM (0, 2, 5, 10, 20, 50, 100, 200 μM) is used to calculate the final experimental values which are then expressed as (μmol resorufin/mol MIT formazan) or as fold-induction compared to solvent.

For orientation: fold induction means the signal under treatment as a multiple of the control signal.

As to `O=c1cc(-c2ccccc2)oc2ccc3ccccc3c12` [3-phenyl-1H-benzo[f]chromen-1-one], the “induction of the luciferase activity” value in series [1] is “significant induction”. For the same molecule, the “induction (luciferase activity)” value in series [2] is “significant induction”. Further, the “induction of the CYP1A1 activity” value in the series on CYP1A1 [3] was “significant induction”.
`O=c1c2ccccc2oc2cc3ccccc3cc12` [compound A]: in the series on sebaceous glands, the “number of differentiated sebocytes” value is “reduction” and the “number of sebaceous glands” value is “clear reduction”. In addition, the fold induction at 24 h in the series on CYP1A1 [4] was more than 20.
